25 compounds from patent publication US9150545B2, “Carboxamide compounds and their use as calpain inhibitors V” (ABBVIE DEUTSCHLAND GMBH & CO. KG, priority 2012, dated 2015) can be followed below.

Counter-ions that a name gives are not always drawn.

For this experiment, the target named is T1, calpain-I isolated from human erythrocytes (Homo sapiens, UniProt P07384).
T1 construct: calpain-I—isolated from human erythrocytes (Calbiochem #208713); purchased Calbiochem 208713; host or cells: human erythrocytes (native tissue isolate)
T1 sequence (P07384 1-714): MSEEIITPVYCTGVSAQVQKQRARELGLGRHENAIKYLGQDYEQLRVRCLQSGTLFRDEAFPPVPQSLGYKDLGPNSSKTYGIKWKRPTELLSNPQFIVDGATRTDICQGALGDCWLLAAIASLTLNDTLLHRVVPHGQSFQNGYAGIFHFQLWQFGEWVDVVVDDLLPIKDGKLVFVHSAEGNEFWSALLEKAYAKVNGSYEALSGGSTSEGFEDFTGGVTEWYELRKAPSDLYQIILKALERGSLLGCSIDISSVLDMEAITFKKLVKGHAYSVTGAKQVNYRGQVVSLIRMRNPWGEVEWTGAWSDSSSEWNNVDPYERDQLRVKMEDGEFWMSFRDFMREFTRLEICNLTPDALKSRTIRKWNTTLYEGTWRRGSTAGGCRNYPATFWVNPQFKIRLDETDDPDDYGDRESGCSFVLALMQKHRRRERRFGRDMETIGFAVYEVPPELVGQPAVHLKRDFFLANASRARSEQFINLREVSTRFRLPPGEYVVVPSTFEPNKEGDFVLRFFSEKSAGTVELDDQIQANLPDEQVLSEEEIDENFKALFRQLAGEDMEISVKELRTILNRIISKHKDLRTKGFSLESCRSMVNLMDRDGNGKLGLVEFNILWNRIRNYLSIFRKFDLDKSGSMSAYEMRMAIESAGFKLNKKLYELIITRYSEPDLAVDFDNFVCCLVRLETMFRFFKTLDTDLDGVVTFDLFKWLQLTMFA
T1 sequence (P04632 1-268 partner): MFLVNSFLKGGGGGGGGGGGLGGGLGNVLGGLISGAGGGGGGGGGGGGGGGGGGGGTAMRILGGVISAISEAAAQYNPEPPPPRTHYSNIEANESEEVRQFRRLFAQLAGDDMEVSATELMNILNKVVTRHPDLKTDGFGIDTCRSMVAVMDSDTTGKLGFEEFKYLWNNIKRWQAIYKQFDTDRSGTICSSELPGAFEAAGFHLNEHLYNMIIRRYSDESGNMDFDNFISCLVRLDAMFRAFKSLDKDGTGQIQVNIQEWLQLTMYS
The experiment in a line: Calpain I kinetic fluorescence enzyme inhibition assay. The class given is biochemical. As to conditions: apparent Ki from IC50 by Cheng-Prussoff. As to the method: Testing for blockade of the corresponding enzymic activities was carried out by means of kinetic fluorescence assays (excitation 390 nm, emission 460 nm).
Apparent Ki values were calculated from the experimentally determined IC50 values by the Cheng-Prussoff relation assuming a reversible competitive enzyme inhibition.
20 nM calpain-I—isolated from human erythrocytes (Calbiochem #208713), 100 μM Suc-Leu-Tyr-AMC (Bachem #I-1355) as substrate in buffer with 62 mM imidazole, 0.3 mM CaCl2, 0.10% CHAPS, 0.05% BSA, 1 mM DTT at pH 7.3 and room temperature.
`NC(=O)C(=O)C(Cc1ccccc1)NC(=O)c1cccnc1-n1ccc(CN2Cc3cccc(F)c3C2)n1` (stereo not shown) [Example 33, N-(4-Amino-3,4-dioxo-1-phenylbutan-2-yl)-2-(3-((4-fluoroisoindolin-2-yl)methyl)-1H-pyrazol-1-yl)nicotinamide trifluoroacetate]: the Ki is below 0.25 µM.

As for `NC(=O)C(=O)C(Cc1ccccc1)NC(=O)c1cccnc1-n1cc2c(n1)CNC2` (stereo not shown) [Example 44, N-(4-Amino-3,4-dioxo-1-phenyl-2-butanyl)-2-(5,6-dihydropyrrolo[3,4-c]pyrazol-2(4H)-yl)nicotinamide hydrochloride], the Ki was below 0.25 µM.

In the case of `NC(=O)C(=O)C(Cc1ccccc1)NC(=O)c1cccnc1-n1ccc(CN2CCC(C(F)(F)F)CC2)n1` (stereo not shown) [Example 12, N-(4-Amino-3,4-dioxo-1-phenylbutan-2-yl)-2-(3-((4-(trifluoromethyl)piperidin-1-yl)methyl)-1H-pyrazol-1-yl)nicotinamide trifluoroacetate], the Ki is below 0.25 µM.

For the compound `NC(=O)C(=O)C(Cc1ccccc1)NC(=O)c1cccnc1-n1cc2c(n1)CCNC2` (stereo not shown) [Example 42, N-(4-Amino-3,4-dioxo-1-phenylbutan-2-yl)-2-(4,5,6,7-tetrahydro-2H-pyrazolo[4,3-c]pyridin-2-yl)nicotinamide hydrochloride], the Ki was below 0.25 µM.

Take `NC(=O)C(=O)C(Cc1ccccc1)NC(=O)c1cccnc1-n1ccc(CN2CCN(c3ccccc3)CC2)n1` (stereo not shown) [Example 32, N-(4-Amino-3,4-dioxo-1-phenylbutan-2-yl)-2-(3-((4-phenylpiperazin-1-yl)methyl)-1H-pyrazol-1-yl)nicotinamide trifluoroacetate]: the Ki was below 0.25 µM.

Turning to `NC(=O)C(=O)C(Cc1ccccc1)NC(=O)c1cccnc1-n1ccc(CN2CCOc3ccccc32)n1` (stereo not shown) [Example 6, 2-(3-((2H-Benzo[b][1,4]oxazin-4(3H)-yl)methyl)-1H-pyrazol-1-yl)-N-(4-amino-3,4-dioxo-1-phenylbutan-2-yl)nicotinamide], the Ki was below 0.25 µM.

With `NC(=O)C(=O)C(Cc1ccccc1)NC(=O)c1cccnc1-n1ccc(CN2CCc3ccccc3C2)n1` (stereo not shown) [Example 22, N-(4-Amino-3,4-dioxo-1-phenylbutan-2-yl)-2-(3-((3,4-dihydroisoquinolin-2(1H)-yl)methyl)-1H-pyrazol-1-yl)nicotinamide], the Ki was below 0.25 µM.

For the compound `NC(=O)C(=O)C(Cc1ccccc1)NC(=O)c1cccnc1-n1ccc(CN2CCC2)n1` (stereo not shown) [Example 11, N-(4-Amino-3,4-dioxo-1-phenylbutan-2-yl)-2-(3-(azetidin-1-ylmethyl)-1H-pyrazol-1-yl)nicotinamide trifluoroacetate], the Ki lay within 0.25 to 0.4 µM.

On to `CC1CCN(Cc2ccn(-c3ncccc3C(=O)NC(Cc3ccccc3)C(=O)C(N)=O)n2)CC1` (stereo not shown) [Example 24, N-(4-Amino-3,4-dioxo-1-phenylbutan-2-yl)-2-(3-((4-methylpiperidin-1-yl)methyl)-1H-pyrazol-1-yl)nicotinamide trifluoroacetate], for which the Ki was below 0.25 µM.

With `CC(C)(C)OC(=O)N1Cc2cn(-c3ncccc3C(=O)NC(Cc3ccccc3)C(=O)C(N)=O)nc2C1` (stereo not shown) [Example 43, tert-Butyl 2-(3-(4-amino-3,4-dioxo-1-phenylbutan-2-ylcarbamoyl)pyridin-2-yl)-4,6-dihydropyrrolo[3,4-c]pyrazole-5(2H)-carboxylate], the Ki was below 0.25 µM.

Turning to `NC(=O)C(=O)C(Cc1ccccc1)NC(=O)c1cccnc1-n1ccc(CN2CCS(=O)(=O)CC2)n1` (stereo not shown) [Example 34, N-(4-Amino-3,4-dioxo-1-phenyl-2-butanyl)-2-{3-[(1,1-dioxido-4-thiomorpholinyl)methyl]-1H-pyrazol-1-yl}nicotinamide trifluoroacetate], the Ki is below 0.25 µM.

With `NC(=O)C(=O)C(Cc1ccccc1)NC(=O)c1cccnc1-n1ccc(CN2Cc3ccc(F)cc3C2)n1` (stereo not shown) [Example 31, N-(4-Amino-3,4-dioxo-1-phenylbutan-2-yl)-2-(3-((5-fluoroisoindolin-2-yl)methyl)-1H-pyrazol-1-yl)nicotinamide trifluoroacetate], the Ki is below 0.25 µM.

Consider `CN(Cc1ccccc1)Cc1ccn(-c2ncccc2C(=O)NC(Cc2ccccc2)C(=O)C(N)=O)n1` (stereo not shown) [Example 21, N-(4-Amino-3,4-dioxo-1-phenylbutan-2-yl)-2-(3-((benzyl(methyl)amino)methyl)-1H-pyrazol-1-yl)nicotinamide trifluoroacetate], for which the Ki was below 0.25 µM.

As for `CC(C)(C)C1CCN(Cc2ccn(-c3ncccc3C(=O)NC(Cc3ccccc3)C(=O)C(N)=O)n2)CC1` (stereo not shown) [Example 23, N-(4-Amino-3,4-dioxo-1-phenylbutan-2-yl)-2-(3-((4-tert-butylpiperidin-1-yl)methyl)-1H-pyrazol-1-yl)nicotinamide], the Ki was below 0.25 µM.

As for `NC(=O)C(=O)C(Cc1ccccc1)NC(=O)c1cccnc1-n1ccc(CN2Cc3ccccc3C2=O)n1` (stereo not shown) [Example 36, N-(4-Amino-3,4-dioxo-1-phenylbutan-2-yl)-2-(3-((1-oxoisoindolin-2-yl)methyl)-1H-pyrazol-1-yl)nicotinamide], the Ki was below 0.25 µM.

On to `NC(=O)C(=O)C(Cc1ccccc1)NC(=O)c1cccnc1-n1cc2c(n1)CCN(Cc1ccccc1)C2` (stereo not shown) [Example 4, N-(4-Amino-3,4-dioxo-1-phenylbutan-2-yl)-2-(5-benzyl-4,5,6,7-tetrahydro-2H-pyrazolo[4,3-c]pyridin-2-yl)nicotinamide], for which the Ki is below 0.25 µM.

Regarding `NC(=O)C(=O)C(Cc1ccccc1)NC(=O)c1cccnc1-n1ccc(CN2CCC(c3ccccc3)C2)n1` (stereo not shown) [Example 29, N-(4-Amino-3,4-dioxo-1-phenylbutan-2-yl)-2-(3-((3-phenylpyrrolidin-1-yl)methyl)-1H-pyrazol-1-yl)nicotinamide], the Ki was below 0.25 µM.

`CCCCC(NC(=O)c1cccnc1-n1ccc(CN2Cc3ccccc3C2)n1)C(=O)C(N)=O` (stereo not shown) [Example 39, N-(1-Amino-1,2-dioxoheptan-3-yl)-2-(3-(isoindolin-2-ylmethyl)-1H-pyrazol-1-yl)nicotinamide]: the Ki is below 0.25 µM.

With `NC(=O)C(=O)C(Cc1ccccc1)NC(=O)c1cccnc1-n1ccc(CN2CCOCC2)n1` (stereo not shown) [Example 1, N-(4-Amino-3,4-dioxo-1-phenylbutan-2-yl)-2-(3-(morpholinomethyl)-1H-pyrazol-1-yl)nicotinamide], the Ki is below 0.25 µM.

In the case of `CN(Cc1ccn(-c2ncccc2C(=O)NC(Cc2ccccc2)C(=O)C(N)=O)n1)C1CCCCC1` (stereo not shown) [Example 20, N-(4-Amino-3,4-dioxo-1-phenylbutan-2-yl)-2-(3-((cyclohexyl(methyl)amino)methyl)-1H-pyrazol-1-yl)nicotinamide trifluoroacetate], the Ki is below 0.25 µM.

As to `CC1CN(Cc2ccn(-c3ncccc3C(=O)NC(Cc3ccccc3)C(=O)C(N)=O)n2)CC(C)O1` (single isomer, unassigned) [Example 2b, N-(4-Amino-3,4-dioxo-1-phenylbutan-2-yl)-2-(3-((2,6-dimethylmorpholino)-methyl)-1H-pyrazol-1-yl)nicotinamide], the Ki was below 0.25 µM.

Take `CN(Cc1ccn(-c2ncccc2C(=O)NC(Cc2ccccc2)C(=O)C(N)=O)n1)C1CC1` (stereo not shown) [Example 26, N-(4-Amino-3,4-dioxo-1-phenylbutan-2-yl)-2-(3-((cyclopropyl(methyl)amino)methyl)-1H-pyrazol-1-yl)nicotinamide trifluoroacetate]: the Ki is below 0.25 µM.

For `NC(=O)C(=O)C(Cc1ccccc1)NC(=O)c1cccnc1-n1ccc(CN2CC3C[C@@H](c4ccc(F)cc4)C3C2)n1` (stereo partly drawn) [Example 27, N-(4-Amino-3,4-dioxo-1-phenylbutan-2-yl)-2-(3-(((6R)-6-(4-fluorophenyl)-3-azabicyclo[3.2.0]heptan-3-yl)methyl)-1H-pyrazol-1-yl)nicotinamide trifluoroacetate], the Ki is below 0.25 µM.

With `NC(=O)C(=O)C(Cc1ccccc1)NC(=O)c1cccnc1-n1ccc(CN2CCc3ccccc32)n1` (stereo not shown) [Example 15, N-(4-Amino-3,4-dioxo-1-phenylbutan-2-yl)-2-(3-(indolin-1-ylmethyl)-1H-pyrazol-1-yl)nicotinamide], the Ki was below 0.25 µM.

For `CCN(CC)Cc1ccn(-c2ncccc2C(=O)NC(Cc2ccccc2)C(=O)C(N)=O)n1` (stereo not shown) [Example 18, N-(4-Amino-3,4-dioxo-1-phenylbutan-2-yl)-2-(3-((diethylamino)methyl)-1H-pyrazol-1-yl)nicotinamide trifluoroacetate], the Ki is 0.25 to 0.4 µM.
